Results taken from patent US20050003383A1, “Linoleate isomerase” (Arkion Life Sciences LLC d/b/a Bio-Technical Resources …, priority 1999, published 2005).
Like-named read-outs stand apart in the source and are kept apart here.

What was measured:
[1] = system: C. sporogenes ATCC 25762 linoleate isomerase; test: C. sporogenes isomerase activity and stability in extracts with additives; type: biochemical, Clostridium sporogenes; settings: for effect of chelating agents on enzyme activity and stability: 1 mM; for effect on the stability of the isomerase: PMSF 0.1-1.0 mM, iodoacetamide 1 mM
Procedure: Temperature sensitivity of the isomerase in crude extracts was tested at 4° C., room temperature (˜25° C.) and 37° C. […] The optimum pH was monitored by adjusting the pH from 5.0 to 9.0 using the 0.1M Tris buffer containing 10 mM NaCl, 1 mM DTT and 40 ppm linoleic acid.
The concentration of linoleic acid was tested from 0 to 100 ppm (FIG. 26).
Two different media, BHI and MRS, were tested. […] Protease inhibitors, PMSF (0.1-1.0 mM), iodoacetamide (1 mM) and pepstatin A were tested for their effects on the stability of the isomerase.
It has been reported that solubilization in the presence of lysophosphatidylcholine (LPC) allows higher detergent concentrations to be used, thus allowing more complete membrane protein solubilization. CaCl2 can activate enzymes, such as some nucleases.

[2] = biological target: P. acnes ATCC 6919 linoleate isomerase (Cutibacterium acnes, UniProt Q6A8X5); type: biochemical, Propionibacterium acnes
P. acnes ATCC 6919 linoleate isomerase, sequence (Q6A8X5 entry or part of it): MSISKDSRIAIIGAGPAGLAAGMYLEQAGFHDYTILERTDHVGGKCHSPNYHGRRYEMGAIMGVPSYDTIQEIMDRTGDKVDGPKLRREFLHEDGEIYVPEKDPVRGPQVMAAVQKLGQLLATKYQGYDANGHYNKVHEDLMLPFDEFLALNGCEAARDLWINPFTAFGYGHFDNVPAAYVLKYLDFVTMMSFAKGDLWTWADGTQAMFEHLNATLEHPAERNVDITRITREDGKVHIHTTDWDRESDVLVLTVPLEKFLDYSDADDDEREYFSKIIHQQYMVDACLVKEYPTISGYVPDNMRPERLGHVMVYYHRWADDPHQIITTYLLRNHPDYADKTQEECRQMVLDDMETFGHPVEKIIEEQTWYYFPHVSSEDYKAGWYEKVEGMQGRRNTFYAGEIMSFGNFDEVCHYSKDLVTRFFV
Procedure: Formation of CLA was determined by measuring the absorbence at 234 nm. […] Generally, the isomerase was assayed using an endpoint assay after 30 to 60 minutes incubation at room temperature. FIG. 18 (time course assay at different linoleic acid levels) and FIG. 19 (end point assay at different linoleic acid levels) show the effect of increasing substrate concentration on formation of […].

[3] = system: L. reuteri PYR8; test: Whole cell biotransformation of linoleic acid to CLA by L. reuteri PYR8; type: cell-based, Lactobacillus reuteri; settings: for effect on (cis,trans)-9,11-CLA formation: nonionic detergent added
Procedure: Cultures were grown and harvested as described above. Washed cells were resuspended in either fresh growth medium or 0.1 M Tris pH 8.0 buffer containing linoleic acid at various concentrations.
Samples were taken at appropriate intervals and analyzed for CLA as described in Example 2. In some experiments, various detergents were added to 0.1-0.5% final concentration. […] About 5 mL solvent was added to about 20 mL aqueous cell suspension in a 125 mL baffled shake flask incubated at room temperature.
Whole cells of L. reuteri PYR8 were used in all biotransformation experiments described below.
The effect of substrate and product on the enzyme performance was also investigated, as well as the possibility of recycling the cells. The effect of CLA on the reaction was studied by adding different concentrations of either a mixture of isomers (Sigma material, approximately 41% 9,11 isomer and 48% 10,12 CLA), or just 9,11 CLA (Matreya material, approximately 77% 9,11 CLA). Concentrations from 500 to 3000 ppm were tested. Some experiments were also performed recycling the broth from a previous biotransformation reaction with L. reuteri PYR8, resulting in an initial CLA concentration around 700 ppm. In every case, 1000 ppm linoleic acid were added.
In the second experiment, cell recycle was studied with cells that have performed the biotransformation at different levels of linoleic acid. Cells were harvested, resuspended in breakage buffer at a 10-fold concentration, and linoleic acid was added at 1000, 1500, 2000, 2500 and 3000 ppm level. Given the higher linoleic acid concentration, the reaction was allowed to proceed for six hours. […] 1000 ppm linoleic acid were added and the reaction was followed for four hours.

[4] = cited from earlier work
[5] = system: L. reuteri PYR8 linoleate isomerase; test: L. reuteri PYR8 linoleate isomerase kinetic assay; type: biochemical, Lactobacillus reuteri
Procedure: Linoleic isomerase activity was assayed either via CLA quantification by gas chromatography as described in Example 2 or by spectrophotometry. The enzyme assay was carried out in 0.1 M Tris buffer pH 7.5, 10 mM NaCl, 1 mM dithiothreitol, with linoleic acid at 20 parts per million (ppm), unless otherwise noted.
About 50 to about 250 μL of enzyme sample was added to 1.5 mL of enzyme assay buffer for reaction. About 1 to about 2 mL of aqueous phase was separated from the enzyme reaction and was extracted with about 3 mL of hexane. In some experiments, and with chromatography fractions containing detergent, 0.5 mL of methanol and 0.5 mL of 5 M NaCl solution were first added to enhance phase separation. The organic layer was separated and the absorbence at 234 nm was measured using a HP 8452A diode array spectrophotometer. Depending on the level of activity, assay mixtures of chromatography fractions were incubated at room temperature from about 1 to about 24 hours before extraction with hexane.
Kinetic assays were performed directly in a 0.5 mL quartz cuvette at room temperature and were continuously monitored at 234 nm. Reactions were initiated by addition of linoleic acid from a concentrated stock prepared in 1,2-propane diol. Reaction buffer was the same as above except it contained 10% 1,2-propane diol.

[6] = system: linoleate isomerase from Clostridium sporogenes; test: C. sporogenes linoleate isomerase kinetic assay, absorbence at 234 nm, partially purified enzyme; type: biochemical; settings: for substrate has an inhibitory effect at concentrations above: substrate concentration dependency of isomerization
Procedure: In this experiment, all kinetic experiments were performed in a quartz cuvette (1-cm light-path with a magnetic stirrer) at room temperature using a HP 8452A diode array spectrophotometer. The cuvette was filled with 1 ml of incubation buffer containing 50 μg protein, 0.1 M potassium phosphate, pH7.5, 10 mM NaCl and 10% 1,2-propane diol. The isomerization was initiated by adding a small aliquot (1-2 μl) of freshly diluted substrate-stock (˜[…] linoleic acid) in 1,2-propane diol at 50 seconds. The increase in absorbence at 234 nm was monitored and recorded. […] The amount of product formed was calculated based on a molar extinction coefficient of 24,000.

[7] = system: B. fibrisolvens A-38 linoleate isomerase; settings: cited from earlier work; for Km / Vmax: compound as substrate, Kepler and Tove (1967)
[8] = Linoleate isomerase characterization (Table 7B), enzymes compared on linoleic acid; type: biochemical
Procedure: Table 7B is a summary of the kinetic data and characterization of linoleate isomerases from P. acnes (crude extract prior to DEAE purification as in Example 11, except that the Vmax was determined using enzyme purified through the chromatofocusing step as in Example 11), L. reuteri (enzyme purified through the gel filtration step as in Example 3), and C. sporogenes (enzyme purified through the gel filtration step as in Example 17), all isolated by the present inventors, and the B. fibrisolvens A-38 linoleate isomerase (crude extract; Kepler and Tove, 1967, J. Biochem. 242:5686-5692). The substrate in these experiments was linoleic acid.

[9] = compound as substrate, read-out: Km
[10] = pH of about 7.5, about 20° C., read-out: Km for linoleic acid
[11] = compound as substrate at 10 PPM, activity with linoleic acid set as 100%
[12] = substrate linoleic acid, purified enzyme

## c1cnc2c(c1)ccc1cccnc12 [1,10-phenanthroline]
[1]; crude extracts
  effect of chelating agents on enzyme activity and stability: protected
[2]; EDTA 5 mM, 1,10-phenanthroline 1 mM, p-chloromercuribenzoate 5 μM, N-ethylmaleimide 100 μM
  inhibition of isomerase activity: not inhibited

## [Ca+2].[Cl-].[Cl-] [CaCl2]
[1]; Tris and phosphate buffer systems
  effect on enzyme activity: decreased the enzyme activity

## O=C(O)CN(CCN(CC(=O)O)CC(=O)O)CC(=O)O [EDTA]
[1]; crude extracts
  effect of chelating agents on enzyme activity and stability: negative effect

## O=S(=O)(F)Cc1ccccc1 [PMSF]
[1]
  effect on the stability of the isomerase: None provided measurable benefit

## CCCCCCCC/C=C\CCCCCCCC(=O)OCCOCC(OCCO)C1OCC(OCCO)C1OCCO (centres unmarked) [Tween-80]
[3]
  effect on (cis,trans)-9,11-CLA formation: does not significantly increase

## CCCCCCCCCCCCCCCC [hexadecane]
[4]
  log P: 8.6

## NC(=O)CI [iodoacetamide]
[1]
  effect on the stability of the isomerase: None provided measurable benefit

## CCCCC/C=C\C/C=C\CCCCCCCC(=O)O [linoleic acid, (cis, cis)-9, 12-octadecadienoic acid]
[5]; compound as substrate
  Vmax: 880 nmole/min/mg protein
[5]; [9]
  Km: 8.1 µM
[5]; [10]
  Km: ≥ 8.1 µM
[3]; up to 3000 ppm linoleic acid, cells with good activity
  substrate inhibition: no substrate inhibition was detected
[1]; tested from 0 to 100 ppm, crude extracts
  optimum concentration for linoleic acid: 40 ppm
[6]; Lineweaver-Burke plot
  maximal velocity (Vmax): 350 μmol CLA/min/mg protein
[6]; Lineweaver-Burke plot, read-out: Km
  Km: 11.3 µM
[6]; compound as substrate
  Vmax: 350 nmole/min/mg protein
[6]; [11]
  RELATIVE ACTIVITY %: 100%
[6]; [9]
  Km: 11.3 µM
[6]; [10]
  Km: ≥ 11.3 µM
[6]
  substrate has an inhibitory effect at concentrations above: above 20 μM
[7]
  Km: 12 µM
  Vmax: 55 nmole/min/mg protein
[2]; [10]
  Km: ≥ 17.2 µM

## CC/C=C\C/C=C\C/C=C\CCCCCCCC(=O)O [linolenic acid, (cis, cis, cis)-9, 12, 15 octadecatrienoic acid]
[6]; compound as substrate
  Vmax: 811 nmole/min/mg protein
[6]; [11]
  RELATIVE ACTIVITY %: 84%
[6]; [9]
  Km: 22.5 µM
[6]
  substrate has an inhibitory effect at concentrations above: > 40 µM
[7]
  Km: 23 µM
  Vmax: 130 nmole/min/mg protein

## CCCCCCCC/C=C\CCCCCCCC(=O)O [oleic acid, (cis)-9 octadecenoic acid]
[6]; 0, 24 and 48 μM oleic acid, varied linoleic acid, Lineweaver-Burke and Hanes-Woolf plots
  type of inhibition: uncompetitive inhibitor
[6]; 70 μM oleic acid (20 PPM)
  isomerase activity in the presence of inhibitor: almost completely lost
[6]; compound added at 35 μM, substrate LA 35 μM, pH 7.5, LA alone = 100%
  RELATIVE ACTIVITY %: 25%
[6]; [11]
  RELATIVE ACTIVITY %: 0%
[6]; inhibition of linoleic acid isomerization, calculated from secondary plots, read-out: inhibition constants (Ki)
  Ki: 23.8 µM
[7]; reported by Kepler and Tove
  type of inhibition: competitive inhibition

## Triton X-100
[3]
  effect on (cis,trans)-9,11-CLA formation: does not significantly increase

## pepstatin A
[1]
  effect on the stability of the isomerase: None provided measurable benefit

B1: L. reuteri: (cis, trans)-9,11-linoleate isomerase from Lactobacillus reuteri PYR8, SEQ ID NO:18 (protein, listed as Lactobacillus reuteri)
chain: MYYSNGNYEAFARPKKPAGVDKKHAYIVGGGLAGLSAAVFLIRDAQMPGENIHILEELPVAGGSLDGEDRPGIGFVTRGGREMENHFECMWDMYRSIPSLEIPGASYLDEYYWLDKEDPNSSNCRLTYKRGNEVPSDGKYGLSKKAIKELTKLIMTPEEKLGRETIGEYFSDDFFESNFWIYWSTMFAFERWHSLAEMRRYMMRFIHHIDGLPDFTALKFNKYNQYESMTKPLLAYLKDHHVKIEYDTQVKNVIVDTHGRQKHAKRILLTQAGKDKVVELTDNDLVFVTNGSITESSTYGSHHQAARPTQALGGSWKLWENLARQSADFGHPDVFCKNLPGRSWFISATATVKNPQVEPYIERLTKRDLHDGKVNTGGIITVTDSNWMLSWTIHRQPHFKKQKKNETIVWIYGLYSNTKGNYIKKRIVDCTGEEITKEWLSIWGFQKPLIDDLAKESSINTVPVYMPFITSYFMPRVKGDRPDVVPEGSANLAFIGNFAESPSRDTVFTTEYSVRTAMEAVYTLLDVDRGVPEVFNSIYDLRELMRAMYYMNDKKPLKDMDLPIPKIVEKPLLKKLQGTWIGELMEQQHLL
[8]; CLA isomer produced from linoleic acid
  CLA Isomer: 9,11
[8]; substrate linoleic acid
  Optimal pH: 7.5
[8]; [12]
  Km: 8.1 µM
  Vmax: 880^5 nmol/min/mg
